Holding throughout (format): physicochemical
Data set [1] in a line: Photostability of butylmethoxydibenzoylmethane in Support 1 formulations, xenon lamp exposure, UV spectrometry (Example 1). Particulars: Support 1, 2% butylmethoxydibenzoylmethane, X = 0% by weight (no 1,1,1-tris(2-methyl-4-hydroxy-5-tert-butylphenyl)butane); ratio of exposed to unexposed OD. The protocol: The photostability of the dibenzoylmethane compound was evaluated on several formulations in which the amount of 1,1,1-tris(2-methyl-4-hydroxy-5-tert-butylphenyl)butane (X) was varied. The support common to these formulations was as follows: [table] For each formula, 3 test samples and 3 control samples were prepared. 2 mg/cm^2 of formula were deposited by spatula onto polymethyl methacrylate plates. […], to a Sun Test Heraus machine equipped with a xenon lamp and having as UV-A illumination: 3.02×10^−3 W/cm^2, and as UV-B illumination: 2.1×10^−4 W/cm^2, and the control plates were maintained for the same time and at the same temperature (38-40° C.) in darkness. After this time, the screening agents were extracted by immersing each plate in 50 g of ethanol and subjecting them to ultrasound for 15 minutes to ensure good extraction. The solutions obtained were analyzed by UV spectrometry. For each test formula, the amount of residual butylmethoxydibenzoylmethane after exposure is given as the ratio of its optical density (OD) in the exposed sample to its unexposed optical density (OD). […]

Data set [2] in a line: Photostability of butylmethoxydibenzoylmethane in Support 2 formulations containing octyltriazone, xenon lamp exposure, UV spectrometry (Example 2). Particulars: Support 2, 0.5% butylmethoxydibenzoylmethane + 1.5% Uvinul T150, X = 0% by weight (no stabilizer). As for the experimental part: (§1) The photostability of octyltriazone in the presence of butylmethoxydibenzoylmethane was examined on several formulations in which the amount of 1,1,1-tris(2-methyl-4-hydroxy-5-tert-butylphenyl)butane (X) was varied. The support common to these formulations was as follows: [table] For each formula, 3 test samples and 3 control samples were prepared. 2 mg/cm^2 of formula were deposited by spatula onto polymethyl methacrylate plates. […], to a Sun Test Heraus machine equipped with a xenon lamp and having as UV-A illumination: 3.02×10^−3 W/cm^2, and as UV-B illumination: 2.1×10^−4 W/cm^2, and the control plates were maintained for the same time and at the same temperature (38-40° C.) in darkness. After this time, the screening agents were extracted by immersing each plate in 50 g of ethanol and subjecting them to ultrasound for 15 minutes to ensure good extraction. The solutions obtained were analyzed by UV spectrometry. For each test formula, the amount of residual butylmethoxydibenzoylmethane and the residual amount of octyltriazone after exposure is given as the ratio of each respective optical density (OD) in the exposed sample to the unexposed optical density (OD) corresponding to each filter. The machine was set at the maximum absorption corresponding to each filter: Butylmethoxydibenzoylmethane: λmax=358 nm

Data set [3] can be described thus: Photostability of octyltriazone in the presence of butylmethoxydibenzoylmethane in Support 2 formulations, xenon lamp exposure, UV spectrometry (Example 2). As to conditions: Support 2, 0.5% butylmethoxydibenzoylmethane + 1.5% Uvinul T150, X = 0% by weight (no stabilizer). The protocol: as §1, with “Octyltriazone: λmax=312” for “Butylmethoxydibenzoylmethane: λmax=358”

Structures are written as SMILES.

As to `COc1ccc(C(=O)CC(=O)c2ccc(C(C)(C)C)cc2)cc1` [butylmethoxydibenzoylmethane, 4-(tert-butyl)-4′-methoxydibenzoylmethane], the “Residual OD at 358 nm after 1 hour of UVA irradiation” value in data set [1] was 11 ± 1%. Besides, the “Residual OD of the dibenzoylmethane at 358 nm after 1 hour of UVA irradiation” value in data set [2] is on record as 32 ± 4%.
`CCCCC(CC)COC(=O)c1ccc(Nc2nc(Nc3ccc(C(=O)OCC(CC)CCCC)cc3)nc(Nc3ccc(C(=O)OCC(CC)CCCC)cc3)n2)cc1` (stereo not drawn) [octyltriazone, 2,4,6-tris[p-(2′-ethylhexyl-1′-oxycarbonyl)anilino]-1,3,5-triazine]: the “Residual OD of the triazine at 312 nm after 1 hour of UVA irradiation” value in data set [3] amounted to 87 ± 13%.
